Test results taken from patent US11279714B2, “Anti-infective compounds” (priority 2014, dated 2022).
In brackets after ≈: the same amount, converted by molar mass.

Experiments:
[1] = system: Raw 264.7 cells infected with H37Rv-GFP; test: microbe, parasite or virus in culture; type: cell-based, M. tuberculosis; settings: for MIC50: Mycobacterium tuberculosis, H37RV, 120 h, read-out: QIM (MIC50)
[2] = system: M. tuberculosis H37Rv expressing the green fluorescent protein (H37Rv-GFP); test: microbe, parasite or virus in culture; type: cell-based; settings: for MIC50: Mycobacterium tuberculosis, H37RV, 120 h, read-out: QUM (MIC50)

Row | Compound | MIC50 [1] [µM] | MIC50 [2] [µM] | melting point [°C] | QIM (MIC50, uM) [1] | QUM (MIC50, uM) [2]
1 | O=C(Nc1ccc(F)nc1)c1cc2sc(N3CCOCC3)nc2s1 [Compound 84] | < 1 | < 1 | 262.3 | – | –
2 | Cc1nc2cc(CCNC(=O)c3cc4sc(N5CCOCC5)nc4s3)ccc2o1 [Compound 177] | < 1 | 1 to 20 (≈ 0.429 to 8.57 µg/mL) | 219.4 | – | –
3 | COc1ccc(NC(=O)c2cc3sc(N4CCCC(N)C4)nc3s2)cc1 (stereo not drawn) [Compound 119] | < 1 | > 20 | 232 | – | –
4 | Cc1nc2cc(NC(=O)c3sc4nc(N5CCOCC5)sc4c3Br)ccc2o1 [Compound 157] | > 20 | > 20 | 269 | – | –
5 | O=C(Nc1cccc(OCc2ccccc2)c1)c1cc2sc(N3CCOCC3)nc2s1 [Compound 109] | > 20 | > 20 | 223.4 | – | –
6 | O=C(Nc1ccc(Cl)cc1)c1cc2sc(N3CCCCC3)nc2s1 [Compound 45] | < 1 | 1 to 20 (≈ 0.378 to 7.56 µg/mL) | 275.2 | – | –
7 | COc1ccc(NC(=O)c2cc3sc(N4CCCCC4)nc3s2)cn1 [Compound 47] | < 1 | < 1 | 232.4 | – | –
8 | O=C(Nc1ccc(F)cc1)c1cc2sc(N3CCOCC3)nc2s1 [Compound 99] | < 1 | 1 to 20 (≈ 0.363 to 7.27 µg/mL) | 240 | – | –
9 | O=C(Nc1ccc(Oc2ccccc2)cc1)c1cc2sc(N3CCCCC3)nc2s1 [Compound 61] | < 1 | 1 to 20 (≈ 0.436 to 8.71 µg/mL) | 201 | – | –
10 | COc1ccc(NCc2cc3sc(N4CCCCC4)nc3s2)cc1 [Compound 69] | > 20 | > 20 | 105 | – | –
11 | Cc1nc2cc(NC(=O)c3cc4sc(N5CCCC(C(=O)N(C)C)C5)nc4s3)ccc2o1 (stereo not drawn) [Compound 178] | 1 to 20 (≈ 0.47 to 9.39 µg/mL) | 1 to 20 (≈ 0.47 to 9.39 µg/mL) | 133.6 | – | –
12 | COc1ccc(NC(=O)c2cc3sc(N4CCCC4)nc3s2)cc1 [Compound 78] | < 1 | < 1 | 274.4 | – | –
13 | CC1CCN(c2ccc(NC(=O)c3cc4sc(N5CCOCC5)nc4s3)cc2)CC1 [Compound 194] | < 1 | 1 to 20 (≈ 0.443 to 8.85 µg/mL) | 278 | – | –
14 | Cc1nc2cc(NC(=O)c3cc4sc(N5CCOCC5)nc4s3)c(F)cc2o1 [Compound 181] | > 20 | > 20 | 287 | – | –
15 | COC(=O)C1CCC(NC(=O)c2cc3sc(N4CCCCC4)nc3s2)CC1 (stereo not drawn) [Compound 60] | 1 to 20 (≈ 0.408 to 8.15 µg/mL) | 1 to 20 (≈ 0.408 to 8.15 µg/mL) | 74 | – | –
16 | O=C(Nc1ccc(CN2CCC(c3ccc(Cl)cc3)CC2)cc1)c1cc2sc(N3CCOCC3)nc2s1 [Compound 200] | > 20 | > 20 | 254.6 | – | –
17 | COc1ccc(OC(=O)c2ccc(NC(=O)c3cc4sc(N5CCOCC5)nc4s3)cc2)cc1 [Compound 111] | < 1 | 1 to 20 (≈ 0.496 to 9.91 µg/mL) | 302.6 | – | –
18 | CCc1cc2oc(C)nc2cc1NC(=O)c1cc2sc(N3CCOCC3)nc2s1 [Compound 150] | > 20 | > 20 | 244 | – | –
19 | O=C(c1cc2sc(N3CCOCC3)nc2s1)N1CCC(Cc2ccc(Cl)cc2)CC1 [Compound 173] | > 20 | > 20 | 167.2 | – | –

Row | Compound | MIC50 [1] [µM] | MIC50 [2] [µM] | melting point [°C] | QIM (MIC50, uM) [1] | QUM (MIC50, uM) [2]
20 | COc1ccc(CCNC(=O)c2cc3sc(N4CCCCC4)nc3s2)cc1 [Compound 42] | < 1 | 1 to 20 (≈ 0.402 to 8.03 µg/mL) | 177.2 | – | –
21 | COc1ncc(NC(=O)c2cc3nc(N4CCCCC4)sc3s2)cn1 [Compound 6] | 1 to 20 (≈ 0.375 to 7.51 µg/mL) | 1 to 20 (≈ 0.375 to 7.51 µg/mL) | 274 | – | –
22 | COC(=O)c1ccc(CCNC(=O)c2cc3sc(N4CCCCC4)nc3s2)cc1 [Compound 43] | < 1 | 1 to 20 (≈ 0.43 to 8.59 µg/mL) | 212.9 | – | –
23 | O=C(Nc1ccc2ncccc2c1)c1cc2sc(N3CCCCC3)nc2s1 [Compound 40] | < 1 | 1 to 20 (≈ 0.395 to 7.89 µg/mL) | 279.5 | – | –
24 | N#Cc1ccc(NC(=O)c2cc3sc(N4CCCCC4)nc3s2)cc1 [Compound 54] | < 1 | < 1 | 177 | – | –
25 | COc1ccc(NC(=O)c2cc3sc(N4CCOCC4)nc3s2)cc1 [Compound 66] | < 1 | 1 to 20 (≈ 0.375 to 7.51 µg/mL) | 248.8 | – | –
26 | Cc1nc2ccc(NC(=O)c3cc4sc(N5CCCCC5)nc4s3)cc2o1 [Compound 48] | < 1 | < 1 | 259.2 | – | –
27 | COc1ccc(C(=O)Nc2cc3sc(N4CCCCC4)nc3s2)cc1 [Compound 98] | > 20 | > 20 | 92 | – | –
28 | COc1ccc(NC(=O)c2cc3sc(NC(=O)C4CCCCC4)nc3s2)cc1 [Compound 65] | 1 to 20 (≈ 0.416 to 8.31 µg/mL) | > 20 | 271 | – | –
29 | COc1ccc(NC(=O)c2cc3sc(N4CCC(C(=O)N(C)C)CC4)nc3s2)cc1 [Compound 127] | < 1 | < 1 | 273.4 | – | –
30 | Cc1nc2cc(NC(=O)c3cc4sc(N5CCOCC5)nc4s3)c(Cl)cc2o1 [Compound 141] | > 20 | > 20 | 277 | – | –
31 | COc1c(C(=O)Nc2ccc3oc(C)nc3c2)sc2nc(N3CCOCC3)sc12 [Compound 172] | > 20 | > 20 | 269 | – | –
32 | COc1cc(NC(=O)c2cc3sc(N4CCCCC4)nc3s2)cc(OC)c1 [Compound 37] | > 20 | > 20 | 148 | – | –
33 | COC1CCN(c2nc3sc(C(=O)Nc4ccc5oc(C)nc5c4)cc3s2)CC1 [Compound 124] | < 1 | < 1 | 237.9 | – | –
34 | Cc1nc2cc(NC(=O)c3cc4sc(N5CCNCC5)nc4s3)ccc2o1 [Compound 140] | 1 to 20 (≈ 0.4 to 7.99 µg/mL) | 1 to 20 (≈ 0.4 to 7.99 µg/mL) | 235.3 | – | –
35 | CCOC(=O)c1ccc(NC(=O)c2cc3sc(N4CCOCC4)nc3s2)cc1 [Compound 108] | < 1 | 1 to 20 (≈ 0.418 to 8.35 µg/mL) | 274 | – | –
36 | Cn1cnc2cc(NC(=O)c3cc4sc(N5CCOCC5)nc4s3)ccc21 [Compound 116] | 1 to 20 (≈ 0.4 to 7.99 µg/mL) | > 20 | 291 | – | –
37 | CCN(CC)C(=O)c1cc2sc(N3CCCCC3)nc2s1 [Compound 57] | 1 to 20 (≈ 0.323 to 6.47 µg/mL) | 1 to 20 (≈ 0.323 to 6.47 µg/mL) | 84 | – | –
38 | COc1ccc(NC(=O)c2cc3sc(NCc4ccc(OC)nc4)nc3s2)cc1 [Compound 104] | < 1 | < 1 | 230.9 | – | –

Row | Compound | MIC50 [1] [µM] | MIC50 [2] [µM] | melting point [°C] | QIM (MIC50, uM) [1] | QUM (MIC50, uM) [2]
39 | O=C(Nc1ccc(F)nc1)c1cc2sc(N3CCC(CO)CC3)nc2s1 [Compound 143] | < 1 | < 1 | 240.8 | – | –
40 | Cc1nc2ccc(NC(=O)c3cc4sc(N5CCOCC5)nc4s3)cc2o1.Cl [Compound 86] | – | – | 272.2 | +++ (+++ indicates <1 uM) | +++ (+++ indicates <1 uM)
41 | COc1ccc(CN(c2nc3sc(C(=O)Nc4ccc(OC)cc4)cc3s2)C(C)C)cc1 [Compound 121] | < 1 | > 20 | 131 | – | –
42 | O=C(Nc1ccc2[nH]ncc2c1)c1cc2sc(N3CCOCC3)nc2s1 [Compound 89] | > 20 | > 20 | 329.8 | – | –
43 | Cc1nc2cc(NC(=O)c3cc4sc(N5CCC(C(=O)N(C)C)CC5)nc4s3)ccc2o1 [Compound 138] | < 1 | < 1 | 284.2 | – | –
44 | Cc1nn(C)cc1-c1ccc(NC(=O)c2cc3sc(N4CCOCC4)nc3s2)cc1 [Compound 167] | < 1 | 1 to 20 (≈ 0.44 to 8.79 µg/mL) | 245 | – | –
45 | CC(C)(C)OC(=O)c1ccc(NC(=O)c2cc3sc(N4CCOCC4)nc3s2)cc1 [Compound 129] | < 1 | 1 to 20 (≈ 0.446 to 8.91 µg/mL) | 244 | – | –
46 | O=C(Nc1ccc(Cl)cc1)c1cc2nc(N3CCCCC3)sc2s1 [Compound 29] | 1 to 20 (≈ 0.378 to 7.56 µg/mL) | 1 to 20 (≈ 0.378 to 7.56 µg/mL) | 230 | – | –
47 | Cn1ccc(-c2ccc(NC(=O)c3cc4sc(N5CCOCC5)nc4s3)cc2)n1 [Compound 145] | < 1 | 1 to 20 (≈ 0.426 to 8.51 µg/mL) | 314 | – | –
48 | Cc1nc2cc(Cl)c(NC(=O)c3cc4sc(N5CCOCC5)nc4s3)cc2o1 [Compound 147] | > 20 | > 20 | 275.3 | – | –
49 | O=C(Nc1ccc(F)c(F)c1)c1ccc2nc(N3CCCCC3)ccc2c1 [Compound 16] | > 20 | > 20 | 194 | – | –
50 | COc1ccc(CNC(=O)c2cc3sc(N4CCCCC4)nc3s2)cc1 [Compound 59] | > 20 | > 20 | 142 | – | –
51 | COc1ccc(NC(=O)c2cc3scnc3s2)cc1 [Compound 75] | > 20 | 1 to 20 (≈ 0.29 to 5.81 µg/mL) | 212 | – | –
52 | COc1ccc(NC(=O)c2cc3sc(N4CCCC(O)C4)nc3s2)cc1 (stereo not drawn) [Compound 96] | < 1 | < 1 | 238 | – | –
53 | COc1ccc(NC(=O)c2cc3nc(N4CCCCC4)sc3s2)cn1 [Compound 10] | > 20 | > 20 | 270 | – | –
54 | COc1ccc(NC(=O)c2cc3sc(N4CCC(C(N)=O)CC4)nc3s2)cc1 [Compound 126] | > 20 | 1 to 20 (≈ 0.417 to 8.33 µg/mL) | 276.1 | – | –
55 | O=C(Nc1ccc(N2CCC(Cc3ccc(F)cc3)CC2)cc1)c1cc2sc(N3CCOCC3)nc2s1 [Compound 183] | < 1 | > 20 | 246 | – | –
56 | O=C(Nc1ccc(-n2ccnc2)cc1)c1cc2sc(N3CCOCC3)nc2s1 [Compound 182] | > 20 | > 20 | 266 | – | –
57 | CC(C)(C)OC(=O)Nc1cc2sc(N3CCCCC3)nc2s1 [Compound 81] | > 20 | > 20 | 157 | – | –
